Source: ChEMBL document CHEMBL5241073, “Pharmacological Targeting of Executioner Proteins: Controlling Life and Death” (J Med Chem, 2021)

Biological target: Apoptosis regulator BAX (Homo sapiens, UniProt Q07812)
Experiment: Inhibition of recombinant human BAX expressed in Escherichia coli BL21 (DE3) assessed as inhibition of liposome permeabilization and measured for 2 hrs by fluorescence analysis

Chain of Apoptosis regulator BAX (Q07812 whole entry): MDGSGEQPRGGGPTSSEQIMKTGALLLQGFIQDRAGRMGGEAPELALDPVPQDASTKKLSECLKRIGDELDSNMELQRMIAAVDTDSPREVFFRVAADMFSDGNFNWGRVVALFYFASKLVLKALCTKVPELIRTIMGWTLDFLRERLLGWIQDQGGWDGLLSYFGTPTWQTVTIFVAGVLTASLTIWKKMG

Row | IC50 | Compound
1 | 6 µM | COCCOCOc1ccc2c(c1)O[C@H](CN)[C@H]2N(Cc1ccc(Br)cc1)C(=O)[C@H](Cc1ccccc1)NC(=O)c1ccccc1
2 | 4 µM | COCCOCOc1ccc2c(c1)O[C@H](CN(Cc1ccc(Br)cc1)C(=O)[C@H](Cc1ccccc1)NC(=O)c1ccccc1)[C@H]2N
